Assay results taken from patent US5506252A, “Substituted N-heteroaryl and N-aryl-1,2-diaminocyclobutene-3,4-diones” (American Home Products Corporation, priority 1994, dated 1996).

System: Isolated Rat Bladder Strips
Test: Inhibition of contractions in isolated rat bladder strips (smooth muscle relaxing activity, KCl-enhanced contractions)
Format: cell-based, Sprague-Dawley rats
Details: 0.5 h, 15 mM KCl added, 30 minute challenge; for IC50: read-out: IC50 (concentration required to elicit 50% inhibition of pre-drug contractile activity); for inhibition at 30 µM: read-out: Inhibition of Force (%) at (x) μM
Description: The smooth muscle relaxing activity of the compounds of this invention was established in accordance with standard pharmaceutically accepted test procedures in representative compounds as follows:
Sprague-Dawley rats (150-200 g) are rendered unconscious by CO2 asphyxiation and then euthanized by cervical dislocation. The bladder is removed into warm (37 deg. C.) physiological salt solution (PSS) of the following composition (mM): NaCl, 118.4; KCl, 4.7; CaCl2, 2.5; […]; NaHCO3, 24.9; KH2 PO4, 1.2; glucose, 11.1; EDTA, 0.023; gassed with […]; pH 7.4. The bladder is opened and then cut into strips 1-2 mm in width and 7-10 mm in length. The strips are subsequently suspended in a 10 mL tissue bath under an initial resting tension of 1.5 g. The strips are held in place by two surgical clips one of which is attached to a fixed hook while the other is attached to an isometric force transducer. […] The carbachol is then washed out and the tissue allowed to relax to its resting level of activity. Following one further 30 minute period of recovery, an additional 15 mM KCl are introduced into the tissue bath. This increase in KCl concentration results in a large increase in the amplitude of spontaneous contractions (and initiation of contractions in previously quiescent strips) superimposed upon a small increase in basal tone. Following stabilization of this enhanced level of contractile activity, incremental increases in the concentration of test compound or vehicle are introduced into the tissue bath. Contractile activity is measured for each compound or vehicle concentration during the last minute of a 30 minute challenge.
The isometric force developed by the bladder strips is measured using a […] to elicit 50% inhibition of pre-drug contractile activity (IC50 concentration) is calculated from this concentration-response curve.

SMILES	IC50 [nM]	inhibition at 30 µM [%]
O=c1c(Nc2ccncc2)c(N[C@H]2C[C@@H]3CC[C@H]2C3)c1=O (relative stereo) [Example 2, (Exo)-3-(bicyclo[2.2.1]hept-2-ylamino)-4-(pyridin-4-ylamino)-cyclobut-3,-ene-1,2-dione]	15800	–
CC(Nc1c(Nc2ccncc2)c(=O)c1=O)C(C)(C)C (stereo not shown) [Example 1, 3-(Pyridin-4-ylamino)-4-(1,2,2-trimethyl-propylamino)-cyclobut-3-ene-1,2-dione]	1360	–
CC(Nc1c(Nc2cccnc2)c(=O)c1=O)C(C)(C)C (stereo not shown) [Example 3, 3-(Pyridin-3-ylamino)-4-(1,2,2-trimethyl-propylamino)-cyclobut-3-ene-1,2-dione]	1950	–
Nc1c(Nc2cccnc2)c(=O)c1=O [Example 6]	–	31
CC(C)(C)Nc1c(Nc2cccnc2)c(=O)c1=O [Example 7, 3-Tert-butylamino-4-(pyridin-3-ylamino)-cyclobut-3-ene-1,2-dione]	2800	–
CC(C)(C)Nc1c(Nc2cccc3cnccc23)c(=O)c1=O [Example 8, 3-Tert-butylamino-4-(isoquinolin-5-ylamino)-cyclobut-3-ene-1,2-dione]	1840	–
Nc1c(Nc2cccc3cnccc23)c(=O)c1=O [Example 9, 3-Amino-4-(isoquinolin-5-ylamino)-cyclobut-3-ene-1,2-dione]	–	43
CC(Nc1c(Nc2cccc3cccnc23)c(=O)c1=O)C(C)(C)C (stereo not shown) [Example 10, 3-(Quinolin-8-ylamino)-4-(1,2,2-trimethyl-propylamino)-cyclobut-3-ene-1,2-dione]	8000	–
CC(C)(C)Nc1c(Nc2cnc3ccccc3c2)c(=O)c1=O [Example 14, 3-Tert-butylamino-4-(quinolin-3-ylamino)-cyclobut-3-ene-1,2-dione]	–	51
CC(C)(C)Nc1c(Nc2ccc3cn[nH]c3c2)c(=O)c1=O [Example 19, 3-Tert-butylamino-4-(1H-indazol-6-ylamino)-cyclobut-3-ene-1,2-dione]	6340	–
CC(Nc1c(Nc2ccc(C#N)cc2)c(=O)c1=O)C(C)(C)C (stereo not shown) [Example 21, 4-[3,4-Dioxo-2-(1,2,2-trimethyl-propylamino)-cyclobut-1-enylamino]-benzonitrile]	520	–
CCc1cc(C#N)ccc1Nc1c(N[C@H](C)C(C)(C)C)c(=O)c1=O [Example 24, (+)-(R )-4-[3,4-Dioxo-2-(1,2,2-trimethyl-propylamino)-cyclobut-1-enylamino]-3-ethyl-benzonitrile]	21	–
COc1cc(C#N)ccc1Nc1c(N[C@H](C)C(C)(C)C)c(=O)c1=O [Example 25, (+)-(R)-4-[3,4-Dioxo-2-(1,2,2-trimethyl-propylamino)-cyclobut-1-enylamino]-3-methoxy-benzonitrile]	290	–
